Results as given in patent publication US5635359A, “Method for measuring the activity of angiotensin converting enzyme in biological samples” (priority 1991, dated 1997).

Key:
[1] = test system: angiotensin converting enzyme (ACE); assay: Plasma ACE-activity, trapping-assay (Ang I substrate, monoclonal antibody TRAP, RIA) after oral enalapril; format: in vivo, human; details: for ACE-activity measured in vitro with the trapping-assay as percent of baseline / ACE-Activity trapping-assay: mean ± SEM; for ACE-Activity trapping-assay: healthy humans, single oral dose 20 mg enalapril
Description: (§1) Ten normal volunteers aged 20 to 28 years (body weight 63 to 85 kg) participated in the study. On the study day, they came to the hospital at 7 a.m. and were installed in a supine position. At 8 a.m., the subjects ingested 20 mg enalapril, an inhibitor of angiotensin converting enzyme. Venous blood samples were collected before (time 0) and at 0.5, 1, 2, 4, 8 and 24 hours after enalapril intake. The subjects remained in supine position for one hour prior to blood sampling and no food intake was permitted within three hours prior to sampling.
(§2) For the measurement of ACE-activity, blood samples (5 ml) were collected from the antecubital vein into prechilled glass tubes containing heparin (56 USP) and 25 μl renin inhibitor CGP 29287 (Ciba-Geigy, Basel, Switzerland) at 1 mM in water. Blood was centrifuged at 4° C. and 2000 g for 10 minutes and plasma aliquots of 0.5 ml were snap frozen in liquid nitrogen and stored at -70° C. until analyzed.
All procedures were done in an ice-water bath unless stated otherwise: Plasma was thawed and centrifuged at 4° C. and 40 μl supernatant was pipetted into a small polypropylene tube. Ten microliter monoclonal antibody TRAP (which was secreted from the Hybridoma cell line TRAP DSM ACC2003) was added (mouse ascites diluted 1:8400 in 3M tris buffer at pH 7.3). One picomole angiotensin I was added in 10 microliter albumin buffer containing--for blank determination only--EDTA at 0.2M concentration. After mixing and cold centrifugation in order to concentrate the mixture at the bottom of the tube (1 minute at 2000 g) samples were incubated in a water bath at 37° C. for 20 minutes. Incubation was stopped by returning the samples to the ice-water bath. Forty microliters of albumin buffer without/with 0.2M EDTA was added to blanks/samples in order to equalize conditions. Each tube (total 100 microliters) finally received 1 ml albumin buffer containing 1 fmol ^125 I-Ang II (2000 counts per minute) and EDTA at 0.02M concentration. After a 24 hour incubation at 4° C., antibody-bound and free Ang II were separated by adding 0.3 ml water containing 2% dextran-coated charcoal, mixing for 10 minutes, centrifugation at 4° C. (for 20 minutes at 6000 g) and decanting of the supernatant. Supernatant and pellet were counted in a ten-well scintillation counter (GammamasterR, Wallac, Turku, Finland) and generated Ang II was read from a simultaneously established standard curve.
For the standard curve, increasing amounts of unlabeled Ang II ranging from 16 to 4000 fmol in 40 μl pool plasma which contained unmeasurably low endogenous Ang I and Ang II and renin inhibitor CGP 29287 at 0.01 mM concentration; antibody in 3M tris buffer (10 μl) and 1000 fmol Ang I in EDTA-albumin buffer (10 μl) were added in order to obtain identical conditions as for the unknown samples.

[2] = test system: angiotensin converting enzyme (ACE); assay: Ratio of plasma Ang II/Ang I as in vivo ACE-activity after oral enalapril; design: species or system human; details: for In vivo ACE-activity (ratio of plasma Ang II to Ang I) as percent of baseline / Ratio Ang II/Ang I: mean ± SEM; for Ratio Ang II/Ang I: plasma, healthy humans, single oral dose 20 mg enalapril
Description: as §1
(§3) For the measurement of Ang II (Nussberger J., Brunner D. B., Waeber B., Brunner H. R., Hypertension 1985; 7 (Suppl. I): 11-17) and immunoreactive Ang I (Nussberger J., Brunner D. B., Waeber B., Brunner H. R., Life Sci. 1988; 42:1683-1688), another 10 ml blood were collected on an inhibitor cocktail containing EDTA and renin inhibitor to prevent degradation and generation of these peptides in vitro. Samples were centrifuged at 4° C. and plasma aliquots of 2.2 ml snap frozen and stored as described above.
(§4) Plasma ACE-activity was also measured by an established method using as substrate synthetic carbobenzoxy-Phe-His-Leu at 1.8 mM concentration (Piquilloud Y., Reinharz A., Roth M.. Biochem. Biophys. Acta 1970; 206: 136-142). The ratio of the plasma concentrations Ang II/Ang I was used for estimation of ACE-activity "in vivo" (Nussberger J., Juillerat L., Perret F., Waeber B., Bellet M., Brunner H. R., Menard J., Am Heart J. 1989; 117: 717-722).

[3] = test system: angiotensin converting enzyme (ACE); assay: Plasma ACE-activity, conventional assay (substrate carbobenzoxy-Phe-His-Leu) after oral enalapril; format: in vivo, human; details: for Plasma ACE-activity by the conventional method, % of pretreatment values / ACE-Activity Conventional assay: mean ± SEM; for ACE-Activity Conventional assay: healthy humans, single oral dose 20 mg enalapril
Description: as §1, §2, §4

[4] = test system: angiotensin II; assay: Plasma angiotensin II concentration after oral enalapril; format: in vivo, human; details: healthy humans, single oral dose 20 mg enalapril, mean ± SEM
Description: as §1, §3

[5] = test system: angiotensin I; assay: Plasma angiotensin I concentration after oral enalapril; format: in vivo, human; details: healthy humans, single oral dose 20 mg enalapril, mean ± SEM
Description: as §1, §3

[6] = 4 hours post enalapril intake (20 mg oral)
[7] = 8 hours post enalapril intake (20 mg oral)
[8] = 24 hours post enalapril intake (20 mg oral)

SMILES: CCOC(=O)[C@H](CCc1ccccc1)N[C@@H](C)C(=O)N1CCC[C@H]1C(=O)O [enalapril]
- ACE-activity measured in vitro with the trapping-assay as percent of baseline [1, 6]: 3.6±2.4%
- ACE-activity measured in vitro with the trapping-assay as percent of baseline [1, 7]: 1.3±1.3%
- ACE-activity measured in vitro with the trapping-assay as percent of baseline [1, 8]: 27.4±3.4%
- Plasma ACE-activity measured in vitro, trapping method, returned to ([1]; at 24 hours): 27%
- Decrease of plasma ACE-activity measured in vitro, trapping method ([1]; at peak inhibition): 99%
- ACE-Activity trapping-assay ([1]; 0.5 h after intake): 295 ± 27 fmol/mL/min
- ACE-Activity trapping-assay ([1]; 1 h after intake): 107 ± 17 fmol/mL/min
- ACE-Activity trapping-assay ([1]; 2 h after intake): 28 ± 8 fmol/mL/min
- ACE-Activity trapping-assay ([1]; 4 h after intake): 15 ± 10 fmol/mL/min
- ACE-Activity trapping-assay ([1]; 8 h after intake): 5 ± 5 fmol/mL/min
- ACE-Activity trapping-assay ([1]; 24 h after intake): 87 ± 10 fmol/mL/min
- In vivo ACE-activity (ratio of plasma Ang II to Ang I) as percent of baseline [2, 6]: 2.1±0.3%
- In vivo ACE-activity (ratio of plasma Ang II to Ang I) as percent of baseline [2, 7]: 2.0±0.4%
- In vivo ACE-activity (ratio of plasma Ang II to Ang I) as percent of baseline [2, 8]: 21.9±5.0%
- In vivo ACE-activity (ratio of plasma Ang II to Ang I) returned to ([2]; at 24 hours): 22%
- Decrease of in vivo ACE-activity (ratio of plasma Ang II to Ang I) ([2]; at peak inhibition): 98%
- Ratio Ang II/Ang I ([2]; 0.5 h after intake): .748 ± .101
- Ratio Ang II/Ang I ([2]; 1 h after intake): .315 ± .094
- Ratio Ang II/Ang I ([2]; 2 h after intake): .029 ± .006
- Ratio Ang II/Ang I ([2]; 4 h after intake): .015 ± .003
- Ratio Ang II/Ang I ([2]; 8 h after intake): .016 ± .003
- Ratio Ang II/Ang I ([2]; 24 h after intake): .147 ± .027
- Plasma ACE-activity by the conventional method, % of pretreatment values ([3]; 4 hours after enalapril administration (20 mg oral)): 16.5±1.7%
- Plasma ACE-activity by the conventional method, % of pretreatment values ([3]; 8 hours after enalapril administration (20 mg oral)): 20.8±1.7%
- Plasma ACE-activity by the conventional method, % of pretreatment values ([3]; 24 hours after enalapril administration (20 mg oral)): 62.6±1.6%
- ACE-activity, conventional method, return towards baseline ([3]; at 24 hours): 66%
- Peak ACE-inhibition, decrease from baseline, conventional method ([3]; at peak inhibition): 83%
- ACE-Activity Conventional assay ([3]; 0.5 h after intake): 18.1 ± 1.7 nmol/mL/min
- ACE-Activity Conventional assay ([3]; 1 h after intake): 12.1 ± 1.2 nmol/mL/min
- ACE-Activity Conventional assay ([3]; 2 h after intake): 4.5 ± 0.8 nmol/mL/min
- ACE-Activity Conventional assay ([3]; 4 h after intake): 3.0 ± 0.4 nmol/mL/min
- ACE-Activity Conventional assay ([3]; 8 h after intake): 3.7 ± 0.4 nmol/mL/min
- ACE-Activity Conventional assay ([3]; 24 h after intake): 11.2 ± 1.0 nmol/mL/min
- Angiotensin II ([4]; 0.5 h after intake): 4.6 ± 0.5 fmol/mL
- Angiotensin II ([4]; 1 h after intake): 2.9 ± 0.5 fmol/mL
- Angiotensin II ([4]; 2 h after intake): 1.1 ± 0.3 fmol/mL
- Angiotensin II ([4]; 4 h after intake): 1.0 ± 0.2 fmol/mL
- Angiotensin II ([4]; 8 h after intake): 1.6 ± 0.4 fmol/mL
- Angiotensin II ([4]; 24 h after intake): 3.8 ± 0.5 fmol/mL
- Angiotensin I ([5]; 0.5 h after intake): 7.3 ± 1.5 fmol/mL
- Angiotensin I ([5]; 1 h after intake): 13.5 ± 3.0 fmol/mL
- Angiotensin I ([5]; 2 h after intake): 45.7 ± 12.9 fmol/mL
- Angiotensin I ([5]; 4 h after intake): 66.8 ± 17.6 fmol/mL
- Angiotensin I ([5]; 8 h after intake): 76.6 ± 15.9 fmol/mL
- Angiotensin I ([5]; 24 h after intake): 32.1 ± 6.4 fmol/mL
